Measured values reported in US9844549B2, “2-aminothiazole derivative or salt thereof” (ASTELLAS PHARMA INC., priority 2014, dated 2017).
Counter-ions that a name gives are not always drawn.

Legend:
rat isolated bladder = test: Effect on electrical field stimulation-induced contraction in rat isolated bladder; conditions: AUC of contraction, value before treatment = 100%, SD female rat bladder, read-out: Enhancement rate of extracted bladder contractions (% of pre)
Experimental: Test Example 2: Effect on Electrical Field Stimulation-Induced Contraction in Rat Isolated Bladder
As an effect on the nerve stimulation-dependent bladder contraction in in vitro, the effect of the Example compounds of the present invention in the electrical field stimulation-induced contraction of the rat isolated bladder was measured by the following method. That is, a bladder specimen having a width of about 2 mm and a length of about 10 mm in the longitudinal direction from the bladder isolated from a Sprague-Dawley (SD) female rat (Japan SLC, Inc.) was prepared. The prepared bladder specimen was suspended in an organ bath filled with 10 mL of a Krebs-Henseleite solution. The Krebs-Henseleite solution was aerated at 95% 02 and 5% CO2, and kept at 37° C. After carrying out stabilization at an initial tension of 1 g, the contraction was caused twice with 60 mM KCl. After stabilization of the specimen with a Krebs-Henseleite solution, the contraction was caused by carrying out electrical field stimulation at 20 V with an electrical stimulation device (Nihon Kohden) (a stimulation frequency of 8 Hz, a pulse width of 0.3 msec, and a stimulation time of 10 seconds). By repeating the transmural electrical stimulation at an interval of 2 minutes, a voltage was adjusted to obtain a contraction height of approximately 50% of the contractile response at 20 V. After the contraction by electrical field stimulation had been stabilized, 10 μL of the test substances dissolved in 100% DMSO in advance (final concentrations of 3 μM, 10 μM, and 30 μM) was added thereto. The test substances were cumulatively administered at the following concentrations after the low-concentration contractile response had been stabilized. The response was taken into a personal computer through a PowerLab (registered trademark) (AD Instruments, Inc.), and analyzed by LabChart (registered trademark) (AD Instruments, Inc.). When the area under the response (area under curve, AUC) in each contraction response was calculated and the value before treatment with the test substance was taken as 100%, the enhancement rate (% of pre) of the isolated bladder contractions after treatment with the test substance was calculated.

anesthetized rats = test: Effect on pelvic nerve stimulation-induced elevation of intravesical pressure in anesthetized rats; format: in vivo; conditions: Rattus norvegicus; 3 mg/kg intravenous; maximum effect within one hour; AUC, pre-treatment = 100%; SD female rats; read-out: Increase rate of intravesical pressure (% of pre)
Experimental: Test Example 3: Effect on Pelvic Nerve Stimulation-Induced Elevation of Intravesical Pressure in Anesthetized Rats
The effect of the Example compounds of the present invention in the pelvic nerve electrical stimulation-induced elevation of intravesical pressure using rats as an action of nerve stimulation-dependent bladder contraction in vivo was measured by the following method. That is, SD female rats (Japan SLC, Inc.) were used and its lower abdomen was dissected at the midline under pentobarbital anesthesia (50 mg/kg ip). After ligating and cutting the ureter on both sides, a cannula (PE-50) for measuring the intravesical pressure was inserted into the bladder from the external urethral opening and fixed by a clip. After injecting about 200 μL of saline through the cannula that had been inserted into the bladder, the other side was connected to a pressure transducer to measure the intravesical pressure. Under a stereoscopic microscope observation, the pelvic nerve in the vicinity of the bladder was peeled and an electrode for nerve stimulation (unique Medical) was placed. The abdominal cavity was filled with mineral oil (MP BIOMEDICALS). After placing in a post-operative stabilization period, the pelvic nerve was subjected to electrical stimulation (stimulation voltage: 10 V, stimulation frequency: 8 Hz, pulse width: 0.3 msec, and stimulation time: 10 seconds) to elicit the elevation of intravesical pressure, using an electrical stimulator (Nihon Kohden). By repeating the electrical stimulation at an interval of 2 minutes while adjusting the voltage, the voltage was adjusted to elicit about 50% to 70% elevation of intravesical pressure elicited at 10 V. Thereafter, by repeating the electrical stimulation at an interval of 10 minutes, the increase in the intravesical pressure by electrical stimulation was stabilized three times or more, and the test substance (an administration amount of 3 mg/kg) was then administered from the catheter detained in the vein at a volume of 1 mL/kg, thus measuring an effect of the elevation of the intravesical pressure of the test substance for 1 hour. The test substance was dissolved in water supplemented with 10% DMSO and 10% Cremophor.
The response was applied to a personal computer through a PowerLab (registered trademark) and analyzed by LabChart (registered trademark). The AUC of each elevation of the intravesical pressure was calculated, the intravesical pressure elevation rate (% of pre) after the treatment with the test substance was calculated by taking an average value of the values measured three times before the treatment with the test substance as 100%, and the maximum effect during a period within one hour after administration of the compound was considered as the effect of the test substance.

SMILES | activity at 10 µM (rat isolated bladder) | response vs control in vivo at 3 mg/kg (anesthetized rats)
CC1CC[C@@H](C)N1Cc1sc(Nc2ncnc(N3CCN(CCC(=O)O)CC3)c2F)nc1-c1cc(F)cc(C(F)(F)F)c1 (stereo in doubt) [Example 8, sodium 3-(4-{6-[(5-{[(2R,5R)-2,5-dimethylpyrrolidin-1-yl]methyl}-4-[3-fluoro-5-(trifluoromethyl)phenyl]-1,3-thiazol-2-yl)amino]-5-fluoropyrimidin-4-yl}piperazin-1-yl)propanoate] | 193% | 178%
COC[C@@H]1CN(c2ncnc(Nc3nc(-c4ccc(Cl)c(C(F)(F)F)c4)c(CN4CCC[C@H]4C)s3)c2F)CCN1CCC(=O)O [Example 1, 3-[(2S)-4-{6-[(4-[4-chloro-3-(trifluoromethyl)phenyl]-5-{[(2R)-2-methylpyrrolidin-1-yl]methyl}-1,3-thiazol-2-yl)amino]-5-fluoropyrimidin-4-yl}-2-(methoxymethyl)piperazin-1-yl]propanoic acid trihydrochloride] | 120% | 197%
Cc1nc(Nc2nc(-c3cc(F)cc(C(F)(F)F)c3)c(CN3CCC[C@H]3C)s2)cc(N2CCN(CCC(=O)O)CC2)n1 [Example 3, 3-(4-{6-[(4-[3-fluoro-5-(trifluoromethyl)phenyl]-5-{[(2R)-2-methylpyrrolidin-1-yl]methyl}-1,3-thiazol-2-yl)amino]-2-methylpyrimidin-4-yl}piperazin-1-yl)propanoic acid trihydrochloride] | 136% | 146%
Cc1nc(Nc2nc(-c3cc(F)cc(C(F)(F)F)c3)c(CN3[C@H](C)CC[C@H]3C)s2)c(F)c(N2CCN(CCC(=O)O)CC2)n1 [Example 4, sodium 3-(4-{6-[(5-{[(2R,5R)-2,5-dimethylpyrrolidin-1-yl]methyl}-4-[3-fluoro-5-(trifluoromethyl)phenyl]-1,3-thiazol-2-yl)amino]-5-fluoro-2-methylpyrimidin-4-yl}piperazin-1-yl)propanoate] | 127% | 178%
C[C@@H]1CCCN1Cc1sc(Nc2ncnc(N3CCN(CCC(=O)O)CC3)c2F)nc1-c1ccc(Cl)c(C(F)(F)F)c1 [Example 9, 3-(4-{6-[(4-[4-chloro-3-(trifluoromethyl)phenyl]-5-{[(2R)-2-methylpyrrolidin-1-yl]methyl}-1,3-thiazol-2-yl)amino]-5-fluoropyrimidin-4-yl}piperazin-1-yl)propanoic acid trihydrochloride] | 187% | 200%
COC[C@@H]1CN(c2ncnc(Nc3nc(-c4cc(F)cc(C(F)(F)F)c4)c(CN4CCC[C@H]4C)s3)c2F)CCN1CCC(=O)O [Example 10, 3-[(2S)-4-{5-fluoro-6-[(4-[3-fluoro-5-(trifluoromethyl)phenyl]-5-{[(2R)-2-methylpyrrolidin-1-yl]methyl}-1,3-thiazol-2-yl)amino]pyrimidin-4-yl}-2-(methoxymethyl)piperazin-1-yl]propanoic acid trihydrochloride] | 271% | 169%
C[C@@H]1CCCN1Cc1sc(Nc2ncnc(N3CCN(CCC(=O)O)CC3)c2F)nc1-c1cc(Cl)cc(C(F)(F)F)c1 [Example 11, 3-(4-{6-[(4-[3-chloro-5-(trifluoromethyl)phenyl]-5-{[(2R)-2-methylpyrrolidin-1-yl]methyl}-1,3-thiazol-2-yl)amino]-5-fluoropyrimidin-4-yl}piperazin-1-yl)propanoic acid trihydrochloride] | 219% | 181%
C[C@@H]1CCCN1Cc1sc(Nc2ncnc(N3CCC(OCC(=O)O)CC3)c2F)nc1-c1cc(F)cc(C(F)(F)F)c1 [Example 12, [(1-{5-fluoro-6-[(4-[3-fluoro-5-(trifluoromethyl)phenyl]-5-{[(2R)-2-methylpyrrolidin-1-yl]methyl}-1,3-thiazol-2-yl)amino]pyrimidin-4-yl}piperidin-4-yl)oxy]acetic acid dihydrochloride] | 166% | 152%
CC[C@@H]1CCCN1Cc1sc(Nc2ncnc(N3CCC(OCC(=O)O)CC3)c2F)nc1-c1cc(Cl)cc(C(F)(F)F)c1 [Example 13, [(1-{6-[(4-[3-chloro-5-(trifluoromethyl)phenyl]-5-{[(2R)-2-ethylpyrrolidin-1-yl]methyl}-1,3-thiazol-2-yl)amino]-5-fluoropyrimidin-4-yl}piperidin-4-yl)oxy]acetic acid dihydrochloride] | 127% | 186%
C[C@@H]1CCCN1Cc1sc(Nc2cc(N3CCN(CCC(=O)O)CC3)ncn2)nc1-c1cc(F)cc(C(F)(F)F)c1 [Example 14] | 169% | 121%
C[C@@H]1CCCN1Cc1sc(Nc2ncnc(N3CCN(CCC(=O)O)CC3)c2F)nc1-c1cc(F)cc(C(F)(F)F)c1 [Example 17] | 199% | 144%
Cc1nc(Nc2nc(-c3cc(F)cc(C(F)(F)F)c3)c(CN3CCC[C@H]3C)s2)c(F)c(N2CCN(CCC(=O)O)CC2)n1 [Example 18] | 199% | 153%
C[C@@H]1CCCN1Cc1sc(Nc2cc(N3CCN(CCC(=O)O)CC3)ccn2)nc1-c1cc(F)cc(C(F)(F)F)c1 [Example 19] | 161% | 125%
COc1c(Nc2nc(-c3cc(F)cc(C(F)(F)F)c3)c(CN3CCC[C@H]3C)s2)ncnc1N1CCN(CCC(=O)O)CC1 [Example 91] | 124% | 144%
